Publication PMC6270165, “Synthesis and Biological Evaluation of 3-Benzisoxazolyl-4-indolylmaleimides as Potent, Selective Inhibitors of Glycogen Synthase Kinase-3β” (Molecules, 2013)

Key:
[1] = tested on: Tau phosphorylation at Ser 396 in SH-SY5Y cells; experiment: Aβ25-35-induced Tau phosphorylation (Ser396) in SH-SY5Y cells, Western blotting; assay type: cell-based, human; conditions: 100 nM, inhibitors 1 hour, then Aβ25–35 6 hours, Western blot
Description: It has been implicated that GSK-3β is involved in multiple cellular processes, and its ability to hyperphosphorylate Tau protein and induce neurofibrillary tangle was intensively studied. Therefore, the cell-based assay examining Tau phosphorylation at Serine 396 represents a direct functional assay to measure the cellular activity of GSK-3β inhibitors. Compounds 7c, 7f, 7j–l and 7o–q were tested for the ability to reduce Tau phosphorylation at Ser 396 in human neuroblastoma SH-SY5Y cells. LiCl, a well-known inhibitor of GSK-3β [24], was used as a positive control in this assay. […] The Aβ-induced Tau hyperphosphorylation results in neurofibrillary tangle formation, which plays an important role in Alzheimer’s disease. […] In addition, the predictions about these compounds’ brain permeability were performed using ADME module with Discovery Studio 2.1 software package.
SH-SY5Y human neuroblastoma cells were obtained from the American Type Culture Collection (ATCC, Manassas, VA, USA). Cells were cultured in 1:1 DMEM:Ham's F12 containing 10% (v/v) fetal bovine serum (HyClone, Logan, UT, USA), 1% penicillin, and 1% streptomycin at a humidified atmosphere with 5% CO2. The medium was changed every 2 days. […] Antigen-antibody complexes were detected by the ECL Kit.

GSK-3β = target: T1, GSK-3β (Homo sapiens, UniProt P49841); experiment: GSK-3β kinase assay (Z'-LYTE Kinase Assay kit Ser/Thr 9 Peptide); assay type: biochemical; conditions: 50 nM enzyme, 30 μM ATP, 2 μM substrate peptide; triplicate; mean ± SE; read-out: GSK-3β inhibitory activity IC50 (nM) ± SE
T1 construct: GST (N, cleaved yes); made in house; host or cells: Escherichia coli BL21-Codon Plus (DE3)
Description: GSK3β belongs to CMGC family. Here, the other family members were used to evaluate the selectivity of GSK3β inhibitors, including PKC-epsilon (AGC family), JAK2 (TK family), Braf (TKL family), DRAK2 (CAMK family) and IKKβ (other family).The recombinant GST-GSK-3βprotein was expressed in Escherichia coli strain BL21-Codon Plus (DE3), purified by GSTrap affinity chromatography, and cleaved by thrombin. The GSK-3β kinase assay was carried out with the Z´-LYTETM Kinase Assay kit Ser/Thr 9 Peptide substrate (Invitrogen, Grand, NY, USA) in 10 μL reaction volume containing 50 nM enzyme, 30 μM ATP and 2 μM substrate peptide. Drak2 Proteins were presented by professor Jiang-ping Wu (Laboratory of Immunology, Research Centre, CHUM, Notre Dame Hospital, Pavilion DeSève). The Drak2 kinase reaction was performed in a final assay volume of 3.4 μL using the ADP-GLO Kinase Assay Kit (Promega, Madison, WI, USA), according the ADP-GLO protocol and read on an EnVision plate reader. The recombinant PKC-epsilon, IKKβ, and JAK2 with N-terminal His-tag were expressed using baculovirus expression system and purified with Ni-Beads. BRAF protein was from Carna Biosciences, Inc. (Kobe Port Island, Japan). And the related kinase reactions were performed in a final assay volume of 10 μL using the related HTRF Assay Kit (Cisbio, Codolet, France). Reactions were according the HTRF protocol and read on an EnVision plate reader. All reactions were carried out in triplicate. […] Data were expressed as mean ± SE.

T1 sequence (P49841 whole entry): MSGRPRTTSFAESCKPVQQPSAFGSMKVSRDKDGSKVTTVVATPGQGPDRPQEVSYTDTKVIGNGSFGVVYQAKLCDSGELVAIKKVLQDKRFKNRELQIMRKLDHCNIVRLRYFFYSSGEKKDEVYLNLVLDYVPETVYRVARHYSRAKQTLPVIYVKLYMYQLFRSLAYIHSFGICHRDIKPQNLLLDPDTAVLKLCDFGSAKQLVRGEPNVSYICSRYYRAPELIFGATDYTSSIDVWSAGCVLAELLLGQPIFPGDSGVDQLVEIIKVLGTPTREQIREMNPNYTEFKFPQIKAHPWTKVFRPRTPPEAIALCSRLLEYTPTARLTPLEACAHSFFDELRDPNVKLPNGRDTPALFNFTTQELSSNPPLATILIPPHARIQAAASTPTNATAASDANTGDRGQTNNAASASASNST

IC50 (GSK-3β): 127 ± 3.2 nM
SMILES: O=C1NC(=O)C(c2cn(CCCN3CCOCC3)c3cc(F)ccc23)=C1c1noc2ccccc12 [7f, 3-(Benzo[d]isoxazol-3-yl)-4-(6-fluoro-1-(3-morpholinopropyl)-1H-indol-3-yl)-1H-pyrrole-2,5-dione]
Effect on Aβ25-35-induced Tau phosphorylation at Ser 396 [1]: obviously reduce
